# Experimental data: patent publication US12338219B2, “Antimalarial agents” (Merck Sharp & Dohme LLC, priority 2019, dated 2025)
# Tested on: parasites (ring stage parasites, parasite growth)
# Assay: Parasite LDH growth assay (Parasite Assay), antiparasite potency
# Format: cell-based
# Settings: 72 hours growth, LDH readout
# Method in brief: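 Ring-stage culture was adjusted to 0.7% parasitemia and 2% haematocrit in bicarbonate-buffered RPMI-Hepes with heat-inactivated human serum and 0.5% albumax, then added to compound. Plates were incubated 72 h at 37 °C in gassed humidified boxes, frozen at −80 °C overnight and thawed, and growth was read by LDH assay.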
SMILES,"EC50 (72 h, Table 3)",EC50 (Table 3),further results
CCC1(CC)CC(=O)N([C@@H](c2cccnc2)[C@@H]2C(C)[C@H]2C(=O)N[C@H]2C[C@H](C(F)(F)F)Oc3ccccc32)C(=N)N1 (stereo partly drawn) [Example 55B],180 nM,–,–
COc1cccc2c1[C@@H](NC(=O)[C@@H]1C[C@H]1CN1C(=N)NC(C)(C)CC1=O)CC(C)(C)O2 [Example 73],192 nM,–,–
"COCC[C@H]([C@@H]1C[C@H]1C(=O)NC1CC(C)(C(C)C)Oc2ccccc21)N1C(=N)NC(C)(C)CC1=O (single isomer, unassigned) [Example 80B]",–,6.6 nM,–
CC1(C)CC(=O)N(C[C@@H]2C[C@H]2C(=O)NC2CC(C)(C)Oc3c(Cl)cc(Cl)cc32)C(=N)N1 (stereo partly drawn) [Example 97B],–,220 nM,–
CC1(C)CC(=O)N([C@H](c2cccc(C#N)c2)[C@@H]2C[C@H]2C(=O)N[C@@H]2c3ccccc3OC(C)(C)[C@H]2O)C(=N)N1 [Example 51],5.3 nM,–,–
"CC[C@]1(C)CC(=O)N(C(c2cncc(F)c2)[C@@H]2C[C@H]2C(=O)NC2c3ccccc3OC(C(F)(F)F)C2O)C(=N)N1 (single isomer, unassigned) [Example 104B]",–,22 nM,–
CCC1(CC)CC(=O)N(C[C@@H]2C(C)[C@H]2C(=O)N[C@@H]2c3ccccc3C[C@H]2O)C(=N)N1 (stereo partly drawn) [Example 33],76 nM,–,–
"COCC[C@H]([C@@H]1C[C@H]1C(=O)NC1CC(C)(COC)Oc2ccccc21)N1C(=N)NC(C)(C)CC1=O (single isomer, unassigned) [Example 82C]",–,53 nM,–
COCC[C@H]([C@@H]1C[C@H]1C(=O)N[C@H]1CC(C)(C)Oc2cccc(OC)c21)N1C(=N)NC(C)(C)CC1=O [Example 74B],3.1 nM,–,–
CC1(C)CC(=O)N([C@H](c2cccnc2)[C@@H]2C[C@H]2C(=O)NC2CC(C)(C)Oc3c(F)cccc32)C(=N)N1 (stereo partly drawn) [Example 93B],–,2.4 nM,–
CCC1(CC)CC(=O)N([C@@H](c2cccnc2)[C@H]2[C@H](C(=O)N[C@H]3C[C@H](C(F)(F)F)Oc4ccccc43)C2(C)C)C(=N)N1 [Example 44A],8.3 nM,–,–
CCC1(CC)CC(=O)N(C[C@@H]2C[C@H]2C(=O)N[C@H]2C[C@H](C(F)(F)F)Oc3ccccc32)C(=N)N1 [Example 8A],37 nM,–,–
CCC1(CC)CC(=O)N(C[C@@H]2C[C@H]2C(=O)N[C@@H]2CC(C)(C)Oc3ccc(F)cc32)C(=N)N1 [Example 7B],29 nM,–,–
CCC1(CC)CC(=O)N(CC2CC2C(=O)N[C@H]2CCOc3ccccc32)C(=N)N1 (stereo partly drawn) [Example 4C],85 nM,–,–
"COCC[C@H]([C@@H]1C[C@H]1C(=O)NC1CC(C)(C(C)C)Oc2ccccc21)N1C(=N)NC(C)(C)CC1=O (single isomer, unassigned) [Example 80A]",–,9.4 nM,–
"CCC1(C)CC(NC(=O)[C@@H]2C[C@H]2[C@@H](c2cccnc2)N2C(=N)NC(C)(C)CC2=O)c2ccccc2O1 (single isomer, unassigned) [Example 105D]",–,0.9 nM,–
Cc1cc2c(cc1Cl)[C@@H](NC(=O)[C@@H]1C[C@H]1CN1C(=N)NC(C)(C)CC1=O)CC(C)(C)O2 [Example 136],160 nM,–,–
CC[C@]1(C)CC(=O)N([C@@H](c2cncc(F)c2)[C@@H]2C[C@H]2C(=O)N[C@@H]2c3ccccc3OCC2(C)C)C(=N)N1 [Example 102B],2.5 nM,–,–
COCC[C@H]([C@@H]1C[C@H]1C(=O)NC1CC(C)(C)Oc2ccccc21)N1C(=N)NC(C)(C)CC1=O (stereo partly drawn) [Example 23A],16 nM,–,–
CCC1(CC)CC(=O)N(CC2C(C(=O)N[C@H]3CCOc4ccccc43)C2(F)F)C(=N)N1 (stereo partly drawn) [Example 15B],–,230 nM,–
CCC1(CC)CC(=O)N(C[C@@H]2C[C@H]2C(=O)N[C@@H](C)c2ccccc2)C(=N)N1 [Example 3B],151 nM,–,–

SMILES,"EC50 (72 h, Table 3)",EC50 (Table 3),further results
"CCC1(CC)CC(=O)N(C[C@@H]2C(C)[C@H]2C(=O)N[C@H]2CC(C)(C)Oc3ccccc32)C(=N)N1 (single isomer, unassigned) [Example 25A]",–,84 nM,–
"CCC1(CC)CC(=O)N(C(CC(C)OC)[C@@H]2C[C@H]2C(=O)N[C@H]2CC(C)(C)Oc3ccccc32)C(=N)N1 (single isomer, unassigned) [Example 142C]",–,–,EC50 (Table 4 (unit inferred)): 205 nM
COCC[C@H]([C@@H]1C[C@H]1C(=O)N[C@H]1CC(C)(C)Oc2cc(C)ccc21)N1C(=N)NC(C)(C)CC1=O [Example 83A],6.6 nM,–,–
CC1(C)CC(=O)N([C@H](c2ccc(C#N)cc2)[C@@H]2C[C@H]2C(=O)N[C@H]2C[C@H](C(F)(F)F)Oc3ccccc32)C(=N)N1 [Example 47B],0.9 nM,–,–
CC1(C)CC(=O)N([C@H](c2cccnc2)[C@@H]2C[C@H]2C(=O)N[C@H]2CC(C)(C)Oc3c(C(F)(F)F)ccc(F)c32)C(=N)N1 [Example 115B],1 nM,–,–
CC1(C)CC(=O)N([C@H](c2cccc(C#N)c2)[C@@H]2C[C@H]2C(=O)N[C@H]2CC(C)(C)Oc3ccccc32)C(=N)N1 [Example 50],3 nM,–,–
COCC[C@H]([C@@H]1C[C@H]1C(=O)N[C@@H]1CC(C)(C)Oc2cccc(F)c21)N1C(=N)NC(C)(C)CC1=O [Example 88B],10 nM,–,–
CC1(C)CC(=O)N([C@H](c2ccc(C#N)cc2)[C@@H]2C[C@H]2C(=O)N[C@@H]2c3ccccc3OC(C)(C)[C@H]2O)C(=N)N1 [Example 46],2.5 nM,–,–
CCC1(CC)CC(=O)N([C@H](c2cccnc2)[C@H]2[C@H](C(=O)N[C@H]3C[C@H](C(F)(F)F)Oc4ccccc43)C2(C)C)C(=N)N1 [Example 44B],0.9 nM,–,–
COCC[C@H]([C@@H]1C[C@H]1C(=O)N[C@H]1CC(C)(C)Oc2cc(OC)ccc21)N1C(=N)NC(C)(C)CC1=O [Example 70B],19 nM,–,–
CC1(C)CC(=O)N(C[C@@H]2C[C@H]2C(=O)N[C@H]2CC(C)(C)Oc3c(C(F)(F)F)ccc(F)c32)C(=N)N1 [Example 99],130 nM,–,–
"CC(C)C1(C)CC(NC(=O)[C@@H]2C[C@H]2CN2C(=N)NC(C)(C)CC2=O)c2ccccc2O1 (single isomer, unassigned) [Example 79B]",–,275 nM,–
"CCC1(CC)CC(=O)N(C(CC(C)OC)[C@@H]2C[C@H]2C(=O)N[C@H]2CC(C)(C)Oc3ccccc32)C(=N)N1 (single isomer, unassigned) [Example 142A]",–,–,EC50 (Table 4 (unit inferred)): 1.9 nM
CCC1(CC)CC(=O)N([C@H](CCOC)[C@@H]2C[C@H]2C(=O)N[C@@H]2c3ccccc3OCC2(C)C)C(=N)N1 [Example 19B],4.2 nM,–,–
"COCC1(C)CC(NC(=O)[C@@H]2C[C@H]2[C@@H](c2cccnc2)N2C(=N)NC(C)(C)CC2=O)c2ccccc2O1 (single isomer, unassigned) [Example 108D]",–,8.5 nM,–
"CCC1(CC)CC(=O)N(C[C@@H]2C(C)[C@H]2C(=O)N[C@@H]2c3ccccc3OC(C)(C)[C@H]2O)C(=N)N1 (single isomer, unassigned) [Example 30A]",–,45 nM,–
CC1(C)CC(=O)N([C@H](c2cccnc2)[C@@H]2C[C@H]2C(=O)NC2CC(C)(C)Oc3cccc(F)c32)C(=N)N1 (stereo partly drawn) [Example 86B],–,2.8 nM,–
CCC1(CC)CC(=O)N([C@H](c2cccnc2)[C@@H]2C(C)[C@H]2C(=O)N[C@H]2CC(C)(C)Oc3ccccc32)C(=N)N1 (stereo partly drawn) [Example 56B],0.7 nM,–,–
CC1(C)CC(=O)N([C@H](c2cccc(C#N)c2)[C@@H]2C[C@H]2C(=O)N[C@H]2C[C@H](C(F)(F)F)Oc3ccccc32)C(=N)N1 [Example 52],1 nM,–,–
CC1(C)CC(=O)N(C[C@@H]2C[C@H]2C(=O)N[C@H]2CC(C3CC3)Oc3ccccc32)C(=N)N1 (stereo partly drawn) [Example 140A],220 nM,–,–
"CC(C)C1(C)CC(NC(=O)[C@@H]2C[C@H]2[C@@H](c2cccnc2)N2C(=N)NC(C)(C)CC2=O)c2ccccc2O1 (single isomer, unassigned) [Example 81C]",–,0.9 nM,–
